Experiments:
Format in all cases: physicochemical
[1] = bleaching rate (T 1/2) at pH=12 in buffer, visible spectrometer; conditions: for Wavelength (λmax-nm): pH=12 buffer; for T 1/2 (pH = 12): pH=12 buffer (aqueous), at λmax given
Experimental: The "bleaching" rates for the compounds of Examples 21, 23, 24, 39 and 41 were determined at pH=12 in terms of T 1/2. By T 1/2 is meant the time measured for one-half of the colored compound to decolorize. In making these determinations, a cell containing about 3 ml of pH=12 buffer (aqueous) was placed in a visible spectrometer. A sample of each compound was dissolved in methanol, and a small amount (less than 0.1 cc) of each solution was injected into the buffer. The optical densities were then recorded at a selected wavelength value to determine T 1/2.

[2] = transmission densities of image-receiving components before and after bleaching with aqueous 1 N KOH; conditions: for Transmission density After Bleaching B / Transmission density After Bleaching G / Transmission density After Bleaching R: 1 N KOH
Excerpt: (§1) Using appropriate solvents, samples of the dye compounds prepared in Examples 12, 13, 24, 26 and 39 were incorporated into the image-receiving layer 3 of image-receiving components comprising the structure set forth below by mixing a solution of each compound with a solution of the graft copolymer and coating this mixture on top of the timing layer to complete each of the image-receiving components.
A transparent 4 mil polyethylene terephthalate film base coated with, in succession:
1. as a polymeric acid layer, a mixture of about 9 parts of a partial butyl ester of polyethylene/maleic anhydride copolymer and 1 part of polyvinyl butyral coated at a coverage of about 2,500 mgs./ft.^2 ;
2. a timing layer containing a 14:1 ratio of a 60-30-4-6 tetrapolymer of butylacrylate, diacetone acrylamide, styrene and methacrylic acid and polyvinyl alcohol at a coverage of 500 mgs./ft.^2 ;
3. a graft copolymer of 4-vinylpyridine and vinylbenzyltrimethylammoniumchloride grafted on hydroxyethyl cellulose in a weight ratio of 2.2/1/2.2, respectively, coated at a coverage of 300 mgs./ft.^2 to provide an image-receiving layer and containing the selected dye compound at a coverage of 22 mgs./ft.^2.
Each of the image-receiving components containing the respective dye compounds were placed on a piece of gelatin coated Mylar, and the transmission densities for red (R), green (G) and blue (B) were recorded on a transmission densitometer. Then several drops of aqueous 1 N KOH were added to each gelatin sheet, and the image-receiving components were lightly pressed against the gelatin sheets to "bleach" the dye compounds. […]

[3] = decolorization of solution with aqueous 1N sodium hydroxide, then acidification; conditions: for color after decolorization with 1N NaOH and lowering to pH 1: methanol solution, aqueous hydrochloric acid to pH 1
Experimental: Also, samples of the compounds prepared in Examples 24, 26 and 39 above were dissolved in a small amount of methanol, and aqueous 1N sodium hydroxide was added to each solution to decolorize the compound.

[4] = bleaching of dye in image-receiving layer film with aqueous 1 N NaOH; conditions: dye in image-receiving layer 3
Excerpt: as §1

[5] = decolorization half-life of acetone solution in pH=12 buffer
Experimental: A sample of an acetone solution of the purified dye compound was added to fresh pH=12 buffer and the first half-life (T 1/2) and the second half-life (T 1/2) were measured giving the following results wherein OD refers to optical density. By T 1/2 is meant the time measured for one-half of said colored compound to decolorize.
The λmax of the pure title compound was 560 nm as measured in acetone--pH 12 buffer, and the T 1/2 values were measured at this wavelength.

[6] = addition of aqueous base (1 N NaOH) to methanol and acetone solutions
Excerpt: The title compound gave yellow solutions in methanol and acetone.

[7] = decolorization of methanol solution added to aqueous 1 N KOH
[8] = bleaching of TLC spot treated with 1 N NaOH
Experimental: (c) β-(methylsulfonyl)ethylchloroformate (196 mg) in 8 ml of toluene was added dropwise over 20 minutes to a refluxing solution of 317.3 mg of the compound prepared in step (b) in 15 ml toluene. The yellow mixture was allowed to stir under reflux for an additional hour after addition was complete. The reaction mixture was a deep yellow. […] The yellow spot representing the title compound when treated with 1 N NaOH produced a magenta color which bleached in approximately 5 seconds. The solvent was removed from the remaining reaction mixture under vacuum to give a yellow solid. Preparative TLC with 150 mg of solid in 4 ml tetrahydrofuran using 10% methanol/chloroform gave a yellow band which was separated and washed with acetone to yield approximately 5 mg of the title compound.

[9] = absorption measured in ethanol
Experimental: (c) To a stirred slurry of the phthalol acyl derivative obtained in step b (7.4 g; 0.0155 M), sodium bicarbonate (6.51 g; 0.078 M) and water (200 ml) was added dropwise, a solution of 4.44 g (0.018 M) iodine in 175 ml methylene chloride. After a total of 20 minutes of stirring at room temperature, the aqueous layer was separated and neutralized by adding it to one liter of water containing 15 ml concentrated hydrochloric acid. The aqueous fraction was extracted with methylene, chloride, the organic layer was dried over sodium sulfate and the solvent was removed in vacuo. The dark orange residue was purified via medium pressure column chromatography (silica gel) methanol-methylene chloride; methanol content varied from 0.5-2%). The title compound was isolated as an orange glass. (λmax 424 nm, Epsilon 22,500 as measured in ethanol)

[10] = 22 mgs./ft.^2, after 15 to 60 seconds
[11] = Experiment 1, pH=12 buffer, 560 nm
[12] = Experiment 2, pH=12 buffer, 560 nm
[13] = 22 mgs./ft.^2, coating stored for over 3 months
[14] = coating stored for over 3 months, bleaching time about 3 minutes

| SMILES | Wavelength (λmax-nm) [1] | T 1/2 (pH = 12) [1] | Transmission density Before Bleaching B ([2]; 22 mgs./ft.^2) | Transmission density Before Bleaching G ([2]; 22 mgs./ft.^2) | Transmission density Before Bleaching R ([2]; 22 mgs./ft.^2) | Transmission density After Bleaching B [2, 10] | Transmission density After Bleaching G [2, 10] | Transmission density After Bleaching R [2, 10] | also measured |
| --- | --- | --- | --- | --- | --- | --- | --- | --- | --- |
| CC1=CC(=C(c2cc(C)c(O)c(C)c2)c2ccccc2S(=O)(=O)N(C)C(=O)OCCS(C)(=O)=O)C=C(C)C1=O [Example 24] | 590 nm | 2 sec. | .40 | .00 | .00 | .00 | .00 | .01 | color after decolorization with 1N NaOH and lowering to pH 1 [3]: remained colorless even at pH 1 |
| COC1=CC(=C(c2cc(OC)c(O)c(OC)c2)c2ccccc2S(=O)(=O)N(C)C(C)=O)C=C(OC)C1=O [Example 23] | 640 nm | 158 sec. |  |  |  |  |  |  |  |
| CN(C(=O)OCCS(C)(=O)=O)C(=O)c1ccccc1C(=C1C=CC(=O)C=C1)c1ccc(O)cc1 [Example 45] |  |  |  |  |  |  |  |  | bleaching of film with aqueous 1 N NaOH [4]: quickly bleached; 1st T 1/2 [5, 11]: 10.0 s; 2nd T 1/2 [5, 11]: 8.5 s; Final OD [5, 11]: 0.02; OD at 1.5 sec. [5, 11]: 2.00; 1st T 1/2 [5, 12]: 9.5 s; 2nd T 1/2 [5, 12]: 8.5 s; Final OD [5, 12]: 0.01; Initial OD (extrapolated) [5, 12]: 1.15; OD at 3.0 sec. [5, 12]: 0.90; λmax ([5]; acetone--pH 12 buffer): 560 nm; bleaching on addition of aqueous base [6]: rapidly and irreversibly bleached to colorless |
| CN(C(=O)OCCS(C)(=O)=O)S(=O)(=O)c1ccccc1C(=C1C=C(C(O)(C(F)(F)F)C(F)(F)F)C(=O)c2ccccc21)c1cc2c3c(c1)CCCN3CCC2 [Example 26] |  |  |  |  |  |  |  |  | Transmission density Before Bleaching B [2, 13]: .05; Transmission density Before Bleaching G [2, 13]: .06; Transmission density Before Bleaching R [2, 13]: .19; Transmission density After Bleaching B [2, 14]: .02; Transmission density After Bleaching G [2, 14]: .00; Transmission density After Bleaching R [2, 14]: .02; color after decolorization with 1N NaOH and lowering to pH 1 [3]: remained colorless even at pH 1; decolorization (in words) [7]: decolorized substantially instantaneously |
| CC(=O)N(C)S(=O)(=O)c1ccccc1C(=C1C=C(C(O)(C(F)(F)F)C(F)(F)F)C(=O)c2ccccc21)c1cc2c3c(c1)CCCN3CCC2 [Example 9] |  |  |  |  |  |  |  |  | decolorization time [7]: approximately 5 seconds |
| COC1=CC(=C(c2cc(OC)c(O)c(OC)c2)c2ccccc2S(=O)(=O)N(C)C(=O)OCCS(C)(=O)=O)C=C(OC)C1=O [Example 21] | 640 nm | 2 sec. |  |  |  |  |  |  |  |
| COC1=CC(=C(c2ccc(N3CCOCC3)cc2)c2ccccc2S(=O)(=O)N(C)C(=O)OCCS(C)(=O)=O)C=C(OC)C1=O [Example 12] |  |  | .45 | .31 | .00 | .00 | .01 | .02 |  |
| COC1=CC(=C(c2cc3c4c(c2)CCCN4CCC3)c2ccccc2S(=O)(=O)N(C)C(=O)OCCS(C)(=O)=O)C=C(OC)C1=O [Example 13] |  |  | .09 | .32 | .21 | .00 | .01 | .01 |  |
| CN(Cc1ccccc1C(=C1C=CC(=O)C=C1)c1ccc(O)cc1)C(=O)OCCS(C)(=O)=O [Example 44] |  |  |  |  |  |  |  |  | color after acidifying and again treating with aqueous 1N NaOH ([3]; after bleaching in 1N NaOH): remained colorless; time to complete bleaching ([3]; aqueous 1N NaOH): ≤ 5 s; time to bleach of magenta color [8]: approximately 5 seconds |
| CC1=CC(=C(c2cc(C)c(O)c(C)c2)c2ccccc2COC(=O)COCC(=O)O)C=C(C)C1=O [Example 42] |  |  |  |  |  |  |  |  | λmax [9]: 424 nm; Epsilon ([9]; at λmax, in M-1 cm-1 (unit assumed)): 22,500 |

The next lines start with results.

| Wavelength (λmax-nm) [1] | T 1/2 (pH = 12) [1] | Transmission density Before Bleaching B ([2]; 22 mgs./ft.^2) | Transmission density Before Bleaching G ([2]; 22 mgs./ft.^2) | Transmission density Before Bleaching R ([2]; 22 mgs./ft.^2) | Transmission density After Bleaching B [2, 10] | Transmission density After Bleaching G [2, 10] | Transmission density After Bleaching R [2, 10] | SMILES | also measured |
| --- | --- | --- | --- | --- | --- | --- | --- | --- | --- |
| 640 nm | 44 sec. | .59 | .03 | .01 | .01 | .00 | .00 | COCC(=O)OCc1ccccc1C(=C1C=C(OC)C(=O)C(OC)=C1)c1cc(OC)c(O)c(OC)c1 [Example 39] | color after decolorization with 1N NaOH and lowering to pH 1 [3]: remained colorless even at pH 1 |
| 640 nm | 18 sec. |  |  |  |  |  |  | COC1=CC(=C(c2cc(OC)c(O)c(OC)c2)c2ccccc2COC(=O)COc2ccccc2)C=C(OC)C1=O [Example 41] |  |
